Source: patent US20100292231A1, “Indazole Compounds for Treating Inflammatory Disorders, Demyelinating Disorders and Cancers” (priority 2007, published 2010)
pEC50: −log10 of the molar value.

Key:
Assay in all cases: SelectScreen kinase specificity survey
Format in all cases: biochemical
Settings in all cases: estimated, abridged dose response curve, read-out: Kinase inhibitory activity EC50
IKBKB (IKK beta) = molecular target: T1, IKBKB (IKK beta) (Homo sapiens, UniProt O14920)
T1 construct: purchased Invitrogen, Inc. (SelectScreen service)
Summary of the method: (§1)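 Specificity was surveyed across 230 kinases using kinase-matched substrate/optical reporter pairs and 100 micromolar ATP. EC50 comes from a 4-parameter Hill fit of an abridged curve.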

KIT T670I = molecular target: T2, KIT T670I (Homo sapiens, UniProt P10721, T670I)
T2 construct: purchased Invitrogen (SelectScreen platform)
Summary of the method: as §1

PRKACA (PKA, PKACA) = molecular target: T3, PRKACA (PKA, PKACA) (Homo sapiens, UniProt P17612)
T3 construct: purchased Invitrogen (SelectScreen platform)
Summary of the method: as §1

CSNK1D (CK1 delta) = molecular target: T4, CSNK1D (CK1 delta) (Homo sapiens, UniProt P48730)
T4 construct: purchased Invitrogen (SelectScreen platform)
Summary of the method: as §1

KDR (VEGFR2) = molecular target: T5, KDR (VEGFR2) (Homo sapiens, UniProt P35968)
T5 construct: purchased Invitrogen, Inc. (SelectScreen platform)
Summary of the method: as §1

MAP4K2 (GCK) = molecular target: T6, MAP4K2 (GCK) (Homo sapiens, UniProt Q12851)
T6 construct: purchased Invitrogen, Inc. (SelectScreen service)
Summary of the method: as §1

STK3 (MST2) = molecular target: T7, STK3 (MST2) (Homo sapiens, UniProt Q13188)
T7 construct: purchased Invitrogen (SelectScreen platform)
Summary of the method: as §1

CDK5/p25 = molecular target: T8, CDK5/p25 (Homo sapiens, UniProt Q00535)
T8 construct: purchased Invitrogen (SelectScreen platform)
Summary of the method: as §1

BRAF V599E = molecular target: T9, BRAF V599E (Homo sapiens, UniProt P15056, V600E)
T9 construct: purchased Invitrogen, Inc. (SelectScreen platform)
Summary of the method: as §1

PLK1 = molecular target: T10, PLK1 (Homo sapiens, UniProt P53350)
T10 construct: purchased Invitrogen, Inc. (SelectScreen service)
Summary of the method: as §1

TYRO3 (RSE) = molecular target: T11, TYRO3 (RSE) (Homo sapiens, UniProt Q06418)
T11 construct: purchased Invitrogen (SelectScreen service)
Summary of the method: as §1

TEK (Tie2) = molecular target: T12, TEK (Tie2) (Homo sapiens, UniProt Q02763)
T12 construct: purchased Invitrogen (SelectScreen)
Summary of the method: as §1

EPHB3 = molecular target: T13, EPHB3 (Homo sapiens, UniProt P54753)
T13 construct: purchased Invitrogen (SelectScreen service)
Summary of the method: as §1

ABL1 T315I = molecular target: T14, ABL1 T315I (Homo sapiens, UniProt P00519, T315I)
T14 construct: purchased Invitrogen (SelectScreen platform)
Summary of the method: as §1

RET = molecular target: T15, RET (Homo sapiens, UniProt P07949)
T15 construct: purchased Invitrogen (SelectScreen)
Summary of the method: as §1

EPHA1 = molecular target: T16, EPHA1 (Homo sapiens, UniProt P21709)
T16 construct: purchased Invitrogen (SelectScreen service)
Summary of the method: as §1

CSNK1E (CK1 epsilon) = molecular target: T17, CSNK1E (CK1 epsilon) (Homo sapiens, UniProt P49674)
T17 construct: purchased Invitrogen (SelectScreen platform)
Summary of the method: as §1

MAPK13 (p38 delta) = molecular target: T18, MAPK13 (p38 delta) (Homo sapiens, UniProt O15264)
T18 construct: purchased Invitrogen, Inc. (SelectScreen service)
Summary of the method: as §1

RPS6KB1 (p70S6K) = RPS6KB1 (p70S6K) (Homo sapiens, UniProt P23443)
Summary of the method: as §1

JAK2 JH1 JH2 V617F = molecular target: T19, JAK2 JH1 JH2 V617F (Homo sapiens, UniProt O60674, V617F)
T19 construct: JAK2 JH1 JH2 V617F; purchased Invitrogen (SelectScreen platform)
Summary of the method: as §1

SYK = molecular target: T20, SYK (Homo sapiens, UniProt P43405)
T20 construct: purchased Invitrogen (SelectScreen)
Summary of the method: as §1

JAK1 = molecular target: T21, JAK1 (Homo sapiens, UniProt P23458)
T21 construct: purchased Invitrogen (SelectScreen platform)
Summary of the method: as §1

RPS6KA4 (MSK2) = molecular target: T22, RPS6KA4 (MSK2) (Homo sapiens, UniProt O75676)
T22 construct: purchased Invitrogen, Inc. (SelectScreen platform)
Summary of the method: as §1

PDK1 = molecular target: T23, PDK1 (Homo sapiens, UniProt O15530)
T23 construct: purchased Invitrogen (SelectScreen platform)
Summary of the method: as §1

CDK1/cyclin B (CDC2) = molecular target: T24, CDK1/cyclin B (CDC2) (Homo sapiens, UniProt P06493)
T24 construct: purchased Invitrogen (SelectScreen platform)
Summary of the method: as §1

PRKCN (PKD3, PRKD3) = molecular target: T25, PRKCN (PKD3, PRKD3) (Homo sapiens, UniProt O94806)
T25 construct: purchased Invitrogen, Inc. (SelectScreen platform)
Summary of the method: as §1

EEF2K = molecular target: T26, EEF2K (Homo sapiens, UniProt O00418)
T26 construct: purchased Invitrogen, Inc. (SelectScreen platform)
Summary of the method: as §1

T19 sequence (O60674 532-1132 V617F limits assumed): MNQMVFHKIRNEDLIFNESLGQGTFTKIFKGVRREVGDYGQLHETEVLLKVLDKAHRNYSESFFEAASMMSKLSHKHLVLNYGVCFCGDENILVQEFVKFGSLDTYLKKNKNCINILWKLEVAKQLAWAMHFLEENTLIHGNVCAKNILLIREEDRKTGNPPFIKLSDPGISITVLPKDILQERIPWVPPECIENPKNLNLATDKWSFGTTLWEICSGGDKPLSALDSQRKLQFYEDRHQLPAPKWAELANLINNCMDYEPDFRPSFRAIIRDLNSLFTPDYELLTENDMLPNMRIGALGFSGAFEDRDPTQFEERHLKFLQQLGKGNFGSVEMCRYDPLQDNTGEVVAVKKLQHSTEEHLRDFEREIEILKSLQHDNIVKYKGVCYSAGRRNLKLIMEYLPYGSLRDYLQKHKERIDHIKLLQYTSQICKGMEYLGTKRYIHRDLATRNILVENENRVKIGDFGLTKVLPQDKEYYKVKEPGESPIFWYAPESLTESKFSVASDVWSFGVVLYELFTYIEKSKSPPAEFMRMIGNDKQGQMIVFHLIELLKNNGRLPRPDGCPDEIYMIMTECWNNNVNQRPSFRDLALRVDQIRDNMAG
T15 sequence (P07949 29-1114): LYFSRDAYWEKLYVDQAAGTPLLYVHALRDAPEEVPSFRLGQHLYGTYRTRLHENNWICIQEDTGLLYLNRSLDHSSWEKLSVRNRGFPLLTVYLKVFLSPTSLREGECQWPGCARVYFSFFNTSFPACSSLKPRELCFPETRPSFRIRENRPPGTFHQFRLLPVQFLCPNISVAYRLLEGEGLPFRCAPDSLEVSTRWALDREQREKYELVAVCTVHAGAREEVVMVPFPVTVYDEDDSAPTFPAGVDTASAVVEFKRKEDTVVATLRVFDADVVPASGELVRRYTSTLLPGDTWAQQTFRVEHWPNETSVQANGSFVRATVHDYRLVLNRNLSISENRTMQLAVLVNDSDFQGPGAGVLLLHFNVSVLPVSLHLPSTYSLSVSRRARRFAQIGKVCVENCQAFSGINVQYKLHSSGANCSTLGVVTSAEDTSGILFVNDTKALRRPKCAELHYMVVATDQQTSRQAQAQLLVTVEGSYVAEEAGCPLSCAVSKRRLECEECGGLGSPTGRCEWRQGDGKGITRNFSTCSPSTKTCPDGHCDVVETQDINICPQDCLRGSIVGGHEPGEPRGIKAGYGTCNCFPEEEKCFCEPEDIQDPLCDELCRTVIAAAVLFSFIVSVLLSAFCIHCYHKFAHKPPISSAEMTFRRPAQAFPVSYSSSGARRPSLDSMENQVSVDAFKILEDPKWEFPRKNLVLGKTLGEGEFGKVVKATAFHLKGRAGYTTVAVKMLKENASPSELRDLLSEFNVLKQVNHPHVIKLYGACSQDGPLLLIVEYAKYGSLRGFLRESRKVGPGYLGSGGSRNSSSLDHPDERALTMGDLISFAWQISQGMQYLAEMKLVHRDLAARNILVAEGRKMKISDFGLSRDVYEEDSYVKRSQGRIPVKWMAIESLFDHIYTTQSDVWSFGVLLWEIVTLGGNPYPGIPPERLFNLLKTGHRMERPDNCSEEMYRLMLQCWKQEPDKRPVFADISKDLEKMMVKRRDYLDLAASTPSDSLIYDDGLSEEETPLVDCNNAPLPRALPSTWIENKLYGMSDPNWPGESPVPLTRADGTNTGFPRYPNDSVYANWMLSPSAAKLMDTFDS
T16 sequence (P21709 26-976): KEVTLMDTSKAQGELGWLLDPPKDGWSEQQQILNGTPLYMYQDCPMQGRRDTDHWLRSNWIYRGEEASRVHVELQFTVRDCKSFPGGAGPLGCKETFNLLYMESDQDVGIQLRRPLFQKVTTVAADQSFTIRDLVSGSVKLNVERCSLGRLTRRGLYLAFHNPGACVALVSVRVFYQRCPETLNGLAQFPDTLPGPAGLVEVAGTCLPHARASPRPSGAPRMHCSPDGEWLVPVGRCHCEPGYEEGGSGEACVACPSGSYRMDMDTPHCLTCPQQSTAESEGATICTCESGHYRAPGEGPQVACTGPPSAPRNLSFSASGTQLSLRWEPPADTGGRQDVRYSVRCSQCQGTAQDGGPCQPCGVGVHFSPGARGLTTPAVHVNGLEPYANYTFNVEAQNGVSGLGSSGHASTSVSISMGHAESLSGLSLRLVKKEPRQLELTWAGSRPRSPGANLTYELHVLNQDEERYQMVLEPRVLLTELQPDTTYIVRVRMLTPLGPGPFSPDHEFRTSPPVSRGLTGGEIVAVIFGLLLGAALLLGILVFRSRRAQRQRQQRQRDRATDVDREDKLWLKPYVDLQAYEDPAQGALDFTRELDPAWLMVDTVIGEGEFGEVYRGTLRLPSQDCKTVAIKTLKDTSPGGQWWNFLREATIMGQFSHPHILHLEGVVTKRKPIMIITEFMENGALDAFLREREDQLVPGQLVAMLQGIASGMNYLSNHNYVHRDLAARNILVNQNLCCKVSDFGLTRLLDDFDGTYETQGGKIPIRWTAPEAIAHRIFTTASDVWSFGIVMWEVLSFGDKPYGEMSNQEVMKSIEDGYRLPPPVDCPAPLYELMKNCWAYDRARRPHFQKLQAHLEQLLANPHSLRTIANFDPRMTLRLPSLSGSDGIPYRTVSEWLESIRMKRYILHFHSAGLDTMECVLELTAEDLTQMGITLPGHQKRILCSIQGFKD
T17 sequence (P49674 whole entry): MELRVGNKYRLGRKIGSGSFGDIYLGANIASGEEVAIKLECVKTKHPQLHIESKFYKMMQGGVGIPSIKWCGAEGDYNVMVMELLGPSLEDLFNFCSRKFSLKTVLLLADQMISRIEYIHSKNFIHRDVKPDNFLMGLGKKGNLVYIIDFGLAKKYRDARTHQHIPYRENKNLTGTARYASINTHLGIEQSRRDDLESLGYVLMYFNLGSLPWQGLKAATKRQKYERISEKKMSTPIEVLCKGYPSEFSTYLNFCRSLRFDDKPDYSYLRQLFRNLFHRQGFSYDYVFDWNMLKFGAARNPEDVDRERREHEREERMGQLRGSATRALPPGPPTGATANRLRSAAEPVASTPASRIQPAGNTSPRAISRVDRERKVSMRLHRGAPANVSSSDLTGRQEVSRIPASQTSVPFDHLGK
T4 sequence (P48730 whole entry): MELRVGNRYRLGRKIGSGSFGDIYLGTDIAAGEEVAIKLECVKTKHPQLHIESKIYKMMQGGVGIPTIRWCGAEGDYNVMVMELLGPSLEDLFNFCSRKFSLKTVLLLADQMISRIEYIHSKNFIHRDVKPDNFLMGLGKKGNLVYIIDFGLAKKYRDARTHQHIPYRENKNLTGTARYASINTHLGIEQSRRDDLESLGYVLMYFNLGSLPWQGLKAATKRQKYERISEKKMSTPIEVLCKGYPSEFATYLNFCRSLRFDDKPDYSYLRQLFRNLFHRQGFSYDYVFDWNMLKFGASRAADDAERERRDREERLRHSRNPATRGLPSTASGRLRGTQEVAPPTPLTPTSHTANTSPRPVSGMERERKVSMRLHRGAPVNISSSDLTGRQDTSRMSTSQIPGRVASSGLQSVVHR
T22 sequence (O75676 whole entry): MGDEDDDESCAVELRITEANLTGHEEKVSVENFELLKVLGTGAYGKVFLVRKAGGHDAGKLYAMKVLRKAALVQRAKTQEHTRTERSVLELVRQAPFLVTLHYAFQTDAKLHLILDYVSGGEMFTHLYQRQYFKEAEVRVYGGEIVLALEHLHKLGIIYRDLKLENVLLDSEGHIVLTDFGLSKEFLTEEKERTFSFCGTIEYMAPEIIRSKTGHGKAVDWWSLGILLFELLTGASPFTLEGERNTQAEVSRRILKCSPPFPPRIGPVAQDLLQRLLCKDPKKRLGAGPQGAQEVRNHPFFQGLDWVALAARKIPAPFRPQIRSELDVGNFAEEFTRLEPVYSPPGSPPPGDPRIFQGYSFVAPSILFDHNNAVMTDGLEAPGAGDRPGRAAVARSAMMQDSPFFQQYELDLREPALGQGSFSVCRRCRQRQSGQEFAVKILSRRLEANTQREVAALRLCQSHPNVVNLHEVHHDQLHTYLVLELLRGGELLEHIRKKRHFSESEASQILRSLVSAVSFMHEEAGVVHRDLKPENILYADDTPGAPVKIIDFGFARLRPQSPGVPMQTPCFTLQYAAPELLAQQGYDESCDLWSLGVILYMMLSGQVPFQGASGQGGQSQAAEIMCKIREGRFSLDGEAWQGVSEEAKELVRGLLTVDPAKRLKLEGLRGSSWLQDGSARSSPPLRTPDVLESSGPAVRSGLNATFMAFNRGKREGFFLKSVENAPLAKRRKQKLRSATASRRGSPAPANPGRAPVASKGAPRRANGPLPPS
T6 sequence (Q12851 whole entry): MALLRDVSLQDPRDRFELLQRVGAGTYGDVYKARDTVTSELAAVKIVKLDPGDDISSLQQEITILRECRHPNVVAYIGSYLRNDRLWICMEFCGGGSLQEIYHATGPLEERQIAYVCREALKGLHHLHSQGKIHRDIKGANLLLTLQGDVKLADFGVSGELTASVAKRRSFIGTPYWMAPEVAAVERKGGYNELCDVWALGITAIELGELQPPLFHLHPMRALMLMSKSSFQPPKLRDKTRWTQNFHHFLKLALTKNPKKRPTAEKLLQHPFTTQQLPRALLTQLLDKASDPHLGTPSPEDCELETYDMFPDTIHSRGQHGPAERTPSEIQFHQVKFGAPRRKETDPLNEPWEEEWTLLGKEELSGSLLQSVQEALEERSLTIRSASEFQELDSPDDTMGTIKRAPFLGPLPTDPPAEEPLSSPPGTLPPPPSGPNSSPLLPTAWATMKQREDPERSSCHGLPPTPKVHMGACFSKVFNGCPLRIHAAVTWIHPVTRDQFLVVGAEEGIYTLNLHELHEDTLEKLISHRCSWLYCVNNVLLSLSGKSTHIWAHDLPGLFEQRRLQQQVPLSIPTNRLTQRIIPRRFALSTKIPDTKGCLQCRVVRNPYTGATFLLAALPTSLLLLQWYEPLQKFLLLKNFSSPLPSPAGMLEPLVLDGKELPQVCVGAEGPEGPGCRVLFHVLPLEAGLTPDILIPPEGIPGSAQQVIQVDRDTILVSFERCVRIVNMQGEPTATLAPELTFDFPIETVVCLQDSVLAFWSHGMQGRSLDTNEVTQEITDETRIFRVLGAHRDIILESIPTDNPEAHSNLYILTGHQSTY

CN(C)CCCNc1ccc2ncn3c4ccc5[nH]ncc5c4c(=O)c1c23 [Compound (IV)]
pEC50 (IKBKB (IKK beta)): 5.55 | pEC50 (KIT T670I): < 5.30 | pEC50 (PRKACA (PKA, PKACA)): < 5.30 | pEC50 (CSNK1D (CK1 delta)): 5.32 | pEC50 (KDR (VEGFR2)): 6.08 | pEC50 (MAP4K2 (GCK)): < 5.30 | pEC50 (STK3 (MST2)): < 5.30 | pEC50 (CDK5/p25): 5.80 | pEC50 (BRAF V599E): 5.93 | pEC50 (PLK1): < 5.30 | pEC50 (TYRO3 (RSE)): 5.45 | pEC50 (TEK (Tie2)): < 5.30 | pEC50 (EPHB3): < 5.30 | pEC50 (ABL1 T315I): < 5.30 | pEC50 (RET): 6.23 | pEC50 (EPHA1): < 5.30 | pEC50 (CSNK1E (CK1 epsilon)): < 5.30 | pEC50 (MAPK13 (p38 delta)): < 5.30 | pEC50 (RPS6KB1 (p70S6K)): 5.63 | pEC50 (JAK2 JH1 JH2 V617F): < 5.30 | pEC50 (SYK): < 5.30 | pEC50 (JAK1): < 5.30 | pEC50 (RPS6KA4 (MSK2)): < 5.30 | pEC50 (PDK1): 5.54 | pEC50 (CDK1/cyclin B (CDC2)): 5.40 | pEC50 (PRKCN (PKD3, PRKD3)): 6.52 | pEC50 (EEF2K): < 5.30

CCN(CC)CCNc1ccc2ncn3c4ccc(O)cc4c(=O)c1c23 [Symadex, 5-(2-(diethylamino)ethylamino)-8-hydroxy-6H-imidazo[4,5,1-de]acridin-6-one, reference compound]
pEC50 (IKBKB (IKK beta)): < 5.30 | pEC50 (KIT T670I): < 5.30 | pEC50 (PRKACA (PKA, PKACA)): < 5.30 | pEC50 (CSNK1D (CK1 delta)): 6.17 | pEC50 (KDR (VEGFR2)): 5.80 | pEC50 (MAP4K2 (GCK)): 5.31 | pEC50 (STK3 (MST2)): < 5.30 | pEC50 (CDK5/p25): < 5.30 | pEC50 (BRAF V599E): 5.47 | pEC50 (PLK1): < 5.30 | pEC50 (TYRO3 (RSE)): 5.61 | pEC50 (TEK (Tie2)): < 5.30 | pEC50 (EPHB3): < 5.30 | pEC50 (ABL1 T315I): < 5.30 | pEC50 (RET): 5.95 | pEC50 (EPHA1): < 5.30 | pEC50 (CSNK1E (CK1 epsilon)): 5.96 | pEC50 (MAPK13 (p38 delta)): < 5.30 | pEC50 (RPS6KB1 (p70S6K)): < 5.30 | pEC50 (JAK2 JH1 JH2 V617F): < 5.30 | pEC50 (SYK): 5.41 | pEC50 (JAK1): < 5.30 | pEC50 (RPS6KA4 (MSK2)): < 5.30 | pEC50 (PDK1): < 5.30 | pEC50 (CDK1/cyclin B (CDC2)): < 5.30 | pEC50 (PRKCN (PKD3, PRKD3)): 6.66 | pEC50 (EEF2K): < 5.30
